The subject of the data set is enteric microorganism. As to the kind of experiment: Low dose metformin usage in a large population. Type of data set: in vivo, human. To be noted: low dose 0.125-0.25 g/day. From the text:
One of the new discoveries of the present disclosure is the important health effect of low dose metformin. The normal dosage of metformin in Chinese population is 1-2 g per day, and the dose for the anti-aging clinical trial in the US is 1.7 g per day. It is known that one of the functions of metformin in regulating human health is through regulating enteric microorganism, whereas an unexpected discovery of the present disclosure is that low dose metformin (0.1-0.5 g/day, prefer for 0.125-0.25 g/day) can also promote health through regulating enteric microorganism. The application of low dose metformin can avoid long-term application caused side effects such as hypoglycemia, lactic acidosis, and hepatic and renal toxicity when normal dosage is used.

For `CN(C)C(=N)N=C(N)N` [metformin, 1,1-Dimethylbiguanide], the “time until stool returned to normal” value was 4 to 5 days. For the same molecule, under “2-3 days after usage”, the stool effect result is reported as “mild diarrhea”.
